Key:
Format in all cases: in vivo, rat
[1] = test system: adult male Sprague Dawley rats; assay: Progressive ratio (PROG)/Chow feeding choice task; conditions: for standard chow intake vs VEH / lever pressing vs VEH: 30-minute session; for chow intake vs VEH, high responders / lever pressing vs VEH, high responders: high responder group (n=15); for lever presses, low responders (chow-intake analysis, FIG. 15) / lever pressing vs VEH, low responders: low responder group (n=16); for lever presses, low responders (chow-intake analysis, FIG. 15): Dunnett's test
Procedure: The PROG/Chow feeding choice procedure was used as a test designed to evaluate the effort a rat is willing to make to eat a palatable food by pressing a lever instead of eating freely available standard food.
Methods. Thirty-one (n=31) adult male Sprague Dawley rats were used in this study. The animals were restricted to 85% of their free-feeding weight, with modest growth allowed throughout the study period. Animals were assessed using operant conditioning chambers. Animals were first introduced to the high carbohydrate pellets (“palatable food”) and trained to lever press using a continuous reinforcement schedule with a fixed ration of one (FR1=one active lever press trigger the delivery of the palatable food) for one week. After this, the rats were trained on the progressive ratio (progressively more lever pressures were needed to trigger the delivery of the palatable food) schedule alone for nine weeks at which point chow (“standard food”) was introduced (=PROG/Chow feeding choice procedure), and animals trained for another 5 weeks to acquire a steady baseline. Each session lasted 30 minutes and rats ran in the operant chambers once a day, five days a week (Monday-Friday). Vehicle (VEH), or Compound 1 doses of 5.0, 10.0, and 20.0 mg/kg were administered via oral gavage once a week (Thursday or Friday) after the training period. Treatment conditions were selected randomly. Lever presses and chow consumption (including spillage) were recorded after each operant session.
Statistical analyses. Repeated measures analysis of variance test (ANOVA) and planned comparisons were used to assess the data overall. Factorial ANOVA was used to assess group x treatment interaction. If significant interactions were found, planned comparisons (using the overall error term) were used to assess the groups individually. Dunnett's tests were also used to analyze differences between drug treatments and VEH. A p value of <0.05 was considered statistically significant for all analyses.

[2] = test system: adult male Sprague Dawley rats; assay: Fixed ratio 1 (FR1) schedule probe
From the text: A fixed ratio 1 (FR1) schedule was used, and this task is the most food dense and appetite dependent operant schedule, with high sensitivity to appetite-related manipulations such as pre-feeding and appetite suppressant drugs.
Methods. The same adult male Sprague Dawley rats (n=31) as in Example 5 were used in this study. Animals trained once daily on the PROG/Chow feeding choice procedure from Monday through Thursday. On Friday, the testing day, the animals were switched from the PROG/Chow feeding choice procedure to FR1 with no prior training. Each operant session lasted 30 minutes and lever presses were recorded at the end of the run. Drug treatment and the FR1 probe occurred on the Friday after two weeks of washout period from Example 5. A dose of 20.0 mg/kg of Compound 1 or vehicle was administered via oral gavage on the testing day. Only the highest dose was tested in this study because, in Example 5, it produced the most robust decrease in lever pressing and chow intake compared to VEH. Treatment conditions were assigned randomly. Treatment group difference was assessed by unpaired t-test. A p value of <0.05 was considered statistically significant.

male Sprague-Dawley rats = assay: Binge-like eating of chocolate; conditions: for chocolate intake vs VEH: 4 h pre-treatment, 1-hr session
From the text: Methods. A new group of male Sprague-Dawley rats (n=8; initial weight 300-325 g) was used for the binge-like eating experiment. They were pair-housed under the same conditions described above, however, they were not food restricted, and in the home cage were allowed ad libitum access to food (laboratory chow) and water. Acquisition of the binge-like eating took place over the course of 12 exposure sessions. A 3-day, 1-hr habituation exposure to an empty feeding cage with a ceramic dish took place before chocolate exposure. With chocolate exposure, rats received chocolate (0.3 g fat, 0.57 g carbohydrate, and 0.073 g protein with a total of 5.34 kcal/g) on days 1, 2, 4, 6, 7, 9, 12, 14, 15, 18, 23, and 28. On exposure days, rats were placed in an empty feeding cage with a ceramic dish containing ground chocolate for 1 hr. Weight of chocolate was taken before and after each session to determine intake.
Drug Administration. Upon completion of the 12 acquisition sessions of binge-like eating rats continued to be exposed to chocolate sessions twice a week for 1-hr in empty feeding cages with a ceramic dish containing chocolate. One session was for maintenance of the binge-like behavior, and then the second was for drug treatment. These sessions took place randomly throughout the week with the maintenance session always occurring prior to the drug treatment session. Compound 1 was dissolved in 0.3% Tween 80 in dH2O. Vehicle (VEH), or doses of 5.0, 10.0, and 20.0 mg/kg were administered via oral gavage once a week for testing. A pre-treatment lead time of four hours was used. A within-subjects design was used in this study, with each rat receiving one treatment per week for a total of four weeks. Treatment conditions were selected randomly.
Data Analysis. Repeated measures ANOVA and planned comparisons were used to assess the effect of Compound 1 on binge-like eating of chocolate.

[3] = test system: adult male Sprague-Dawley rats; assay: Sleep/wake parameters, repeated measures; conditions: first 6 hours post-dosing, n=8
Procedure: Using a counter-balanced, repeated measures design, three doses of Compound 1 (1-10 mg/kg, p.o.) were tested for their effects on sleep/wake parameters in adult male Sprague-Dawley rats (n=8). The results were compared with the effects on caffeine (10 mg/kg).
Methods. Eight (n=8) adult male Sprague Dawley rats were used in this study. Each rat received Compound 1 at 3 doses (1, 3 and 10 mg/kg), vehicle (purified H2O-negative control) and caffeine (10 mg/kg—positive control). […] Sleep parameters (non-rapid eye movement sleep, NR; rapid eye movement sleep, REM) were recorded and the first 6 hours post-dosing records were analyzed.

[4] = 10.0 mg/kg oral gavage, n=31, p<0.001
[5] = 20.0 mg/kg oral gavage, n=31, p<0.001

## CCC[C@]1(C(=O)c2ccc(Cl)c(Cl)c2)CCNC1 [Compound 1, (3,4-dichloro-phenyl)-((S)-3-propyl-pyrrolidin-3-yl)-methanone]
[1]; 5.0 mg/kg oral gavage, n=31, p<0.001
  standard chow intake vs VEH: significant decreases
[1]; 5.0 mg/kg oral gavage, n=31, p=n.s.
  lever pressing vs VEH: No significant difference
[1]; [4]
  lever pressing vs VEH: significant decreases in lever pressing
  standard chow intake vs VEH: significant decreases
[1]; [5]
  lever pressing vs VEH: significant decreases in lever pressing
  standard chow intake vs VEH: significant decreases
[1]; 5.0-20.0 mg/kg oral gavage
  overall conclusion on appetite: appetite suppressant effects
[1]; 5.0 mg/kg, p<0.010
  chow intake vs VEH, high responders: significant decreases in chow intake
[1]; 5.0 mg/kg, p=n.s.
  lever pressing vs VEH, high responders: no significant difference
  lever pressing vs VEH, low responders: no significant differences
[1]; 10.0 mg/kg, p<0.001
  chow intake vs VEH, high responders: significant decreases in chow intake
  lever pressing vs VEH, high responders: significant decreases in lever pressing
  lever presses, low responders (chow-intake analysis, FIG. 15): significant decreases in lever presses
[1]; 20.0 mg/kg, p<0.001
  chow intake vs VEH, high responders: significant decreases in chow intake
  lever pressing vs VEH, high responders: significant decreases in lever pressing
  lever presses, low responders (chow-intake analysis, FIG. 15): significant decreases in lever presses
[1]; 5.0 mg/kg, p<0.001
  lever presses, low responders (chow-intake analysis, FIG. 15): significant decreases in lever presses
[1]; 10.0 mg/kg, p=n.s.
  lever pressing vs VEH, low responders: no significant differences
[1]; 20.0 mg/kg, p=n.s.
  lever pressing vs VEH, low responders: no significant differences
[2]; 20.0 mg/kg oral gavage
  rats that pressed the lever but refrained from eating some of the pellets: 6 of the 16
[2]; 20.0 mg/kg oral gavage, 30-minute session, unpaired t-test t=9.74, p<0.001
  lever pressing vs VEH in FR1 probe: significant decrease in lever pressing
[2]; 20.0 mg/kg, after the 30-minute operant session
  uneaten pellets left in the food dishes of these animals: 5-10 pellets
Male Sprague-Dawley rats; 5.0 mg/kg oral gavage, n=8, n.s.
  chocolate intake vs VEH: did not significantly suppress chocolate intake
Male Sprague-Dawley rats; 10.0 mg/kg oral gavage, n=8, p<0.001
  chocolate intake vs VEH: significant reductions in chocolate intake
Male Sprague-Dawley rats; 20.0 mg/kg oral gavage, n=8, p<0.001
  chocolate intake vs VEH: significant reductions in chocolate intake
Male Sprague-Dawley rats; rat, in vivo
  binge eating in animal model (FIGS. 8 and 9): effective in controlling binge eating
[3]; 3 mg/kg p.o.
  REM sleep: reduced REM sleep, but to a lesser extent
  wake: significantly increased wake
[3]; 10 mg/kg p.o.
  REM sleep: complete suppression of REM sleep
  wake: wake-promoting effects

Source: patent US20250213526A1, “TRIPLE UPTAKE INHIBITOR FOR THE TREATMENT OF ATYPICAL DEPRESSION” (priority 2022, published 2025)
